From ChEMBL document CHEMBL4392851, “Synthesis and structure-activity relationships for new 6-fluoroquinoline derivatives with antiplasmodial activity” (Bioorg Med Chem, 2019)

What was measured:
[1] = test system: L6; experiment: Cytotoxicity in rat L6 cells assessed as reduction in cell viability incubated for 72 hrs by alamar blue assay; format: cell-based; details: L6, 72 h
[2] = test system: Plasmodium falciparum; experiment: Antiplasmodial activity against chloroquine-sensitive Plasmodium falciparum NF54 erythrocytic stages incubated for 48 hrs by [3H]-hypoxanthine incorporation assay; format: functional, organism-based
[3] = Selectivity index, ratio of IC50 for rat L6 cells to IC50 for chloroquine and pyrimethamine resistant Plasmodium falciparum K1; format: toxicity; details: read-out: Ratio IC50
[4] = test system: Plasmodium falciparum; experiment: Antiplasmodial activity against chloroquine and pyrimethamine resistant Plasmodium falciparum K1 erythrocytic stages incubated for 48 hrs by [3H]-hypoxanthine incorporation assay; format: functional, organism-based
[5] = Selectivity index, ratio of IC50 for rat L6 cells to IC50 for chloroquine-sensitive Plasmodium falciparum NF54 erythrocytic stages; format: toxicity; details: read-out: Ratio IC50
[6] = Effective permeability by PAMPA; format: ADME; details: read-out: Peff
[7] = test system: Plasmodium berghei
Description: Antiplasmodial activity against GFP-transfected Plasmodium berghei ANKA infected in NMRI mouse assessed as mean survival days at 50 mg/kg/day, ip for consecutive 4 days (4, 24, 48 and 72 hrs post infection) and measured up to 20 days after infection (Rvb = 6 to 7 days)

[8] = test system: Plasmodium berghei; experiment: Antiplasmodial activity against GFP-transfected Plasmodium berghei ANKA infected in NMRI mouse assessed as reduction in parasitaemia at 50 mg/kg/day, ip for consecutive 4 days (4, 24, 48 and 72 hrs post infection) and measured up to 20 days after infection relative to untreated control; format: functional; design: scale not given: the % may be the effect or the level left

Row | SMILES | IC50 ([1]; read-out: IC50) | IC50 [2] | selectivity ratio [3] | IC50 [4] | selectivity ratio [5] | Papp [6] | MSD [7] | Activity [8] | IC50 [1]
1 | Nc1cc(-c2ccc(CN3CCOCC3)cc2)nc2ccc(F)cc12 | 21.5 µM | 0.23 µM | 55 | 0.39 µM | 93.3 |  |  |  | 
2 | CCOC(=O)N1CCC(NC(=O)c2cc(-c3ccc(CN4CCOCC4)cc3)nc3ccc(F)cc23)CC1 | 90.5 µM | 7.13 µM |  |  | 12.7 | 0.19 ×10⁻⁶ cm/s |  |  | 
3 | CC(C)(C)C(=O)N1CCN(CCNC(=O)c2cc(-c3ccc(CN4CCOCC4)cc3)nc3ccc(F)cc23)CC1 | 80 µM | 0.005 µM |  |  | 16000 | 6.11 ×10⁻⁶ cm/s | 4 days | 25.2% | 
4 | Fc1ccc2nc(-c3ccc(CN4CCOCC4)cc3)cc(CNCCN3CCCC3)c2c1 | 53.8 µM | 0.0011 µM | 48900 | 0.0011 µM | 48900 | 4.55 ×10⁻⁶ cm/s | 10 days | 99.4% | 
5 | CCC(=O)N1CCN(Cc2cc(-c3ccc(CN4CCOCC4)cc3)nc3ccc(F)cc23)CC1 | 38.6 µM | 10.1 µM |  |  | 3.83 | 7.15 ×10⁻⁶ cm/s |  |  | 
6 | O=C(CN1CCCC1)Nc1cc(-c2ccc(CN3CCOCC3)cc2)nc2ccc(F)cc12 | 56.8 µM | 1.04 µM | 69.3 | 0.82 µM | 54.6 |  |  |  | 
7 | COc1cc([C@@H]2c3cc4c(cc3[C@H](O)[C@H]3COC(=O)[C@H]23)OCO4)cc(OC)c1OC [PODOFILOX] |  |  |  |  |  |  |  |  | 0.012 µM
8 | CC(NC(=O)c1cc(-c2ccc(CN3CCOCC3)cc2)nc2ccc(F)cc12)c1ccccc1 (racemic) | 72.4 µM | 5.6 µM |  |  | 12.9 |  |  |  | 
9 | O=C(NCCc1ccccc1)c1cc(-c2ccc(CN3CCOCC3)cc2)nc2ccc(F)cc12 | 16.5 µM | 4.62 µM |  |  | 3.57 |  |  |  | 
10 | O=C(NCc1ccccc1)c1cc(-c2ccc(CN3CCOCC3)cc2)nc2ccc(F)cc12 | 103 µM | 5.99 µM |  |  | 17.2 |  |  |  | 
11 | CC(C)(C)C(=O)N1CCN(CCC(=O)Nc2cc(-c3ccc(CN4CCOCC4)cc3)nc3ccc(F)cc23)CC1 | 44.5 µM | 0.53 µM | 124 | 0.36 µM | 83.9 |  |  |  | 
12 | CCN(CC)CCCC(C)Nc1ccnc2cc(Cl)ccc12 (stereo not given) [CHLOROQUINE] |  |  |  |  |  |  | 20 days | 99.6% | 
13 | CN1CCN(Cc2ccc(-c3cc(NC(=O)CCN4CCCC4)c4cc(F)ccc4n3)cc2)CC1 | 15.6 µM | 0.002 µM | 5370 | 0.0029 µM | 7780 |  | 16 days | 99.6% | 
14 | CC(C)(C)C(=O)N1CCN(CC(=O)Nc2cc(-c3ccc(CN4CCOCC4)cc3)nc3ccc(F)cc23)CC1 | 74.8 µM | 9.57 µM | 15.2 | 4.91 µM | 7.82 |  |  |  | 
15 | Fc1ccc2nc(-c3ccc(CN4CCOCC4)cc3)cc(CNCCN3CCN(c4ccccc4)CC3)c2c1 | 14.6 µM | 0.02 µM | 396 | 0.037 µM | 732 | 2.39 ×10⁻⁶ cm/s |  |  | 
16 | C[C@@H]1CC[C@H]2[C@@H](C)C(=O)O[C@@H]3O[C@@]4(C)CC[C@@H]1[C@]32OO4 [ARTEMISININ] |  |  | 70400 | 0.0064 µM |  |  |  |  | 
17 | CC(C)(C)OC(=O)N1CCN(CC(=O)Nc2cc(-c3ccc(CN4CCOCC4)cc3)nc3ccc(F)cc23)CC1 | 89.2 µM | 7.53 µM | 25.5 | 3.5 µM | 11.8 |  |  |  | 
18 | CCCN1CCN(Cc2cc(-c3ccc(CN4CCOCC4)cc3)nc3ccc(F)cc23)CC1 | 14.9 µM | 1.94 µM |  |  | 7.67 | 9.26 ×10⁻⁶ cm/s |  |  | 
19 | CN1CCN(CCC(=O)Nc2cc(-c3ccc(CN4CCOCC4)cc3)nc3ccc(F)cc23)CC1 | 31.6 µM | 0.61 µM |  |  | 51.8 |  |  |  | 
20 | O=C(c1cc(-c2ccc(CN3CCOCC3)cc2)nc2ccc(F)cc12)N1CCCCC1 | 102 µM | 37.7 µM |  |  | 2.69 |  |  |  | 
21 | O=C(c1cc(-c2ccc(CN3CCOCC3)cc2)nc2ccc(F)cc12)N1CCC(O)CC1 | 101 µM | 64 µM |  |  | 1.57 | 3.67 ×10⁻⁶ cm/s |  |  | 
22 | O=C(CCN1CCCC1)Nc1cc(-c2ccc(CN3CCOCC3)cc2)nc2ccc(F)cc12 | 123 µM | 0.004 µM | 11200 | 0.011 µM | 30800 | 10.1 ×10⁻⁶ cm/s | 4 days | 33.9% | 
23 | O=C(NCCc1ccccn1)c1cc(-c2ccc(CN3CCOCC3)cc2)nc2ccc(F)cc12 | 53.5 µM | 14.9 µM |  |  | 3.6 | 9.35 ×10⁻⁶ cm/s |  |  | 
24 | CC(C)(C)OC(=O)N1CCN(CCNCc2cc(-c3ccc(CN4CCOCC4)cc3)nc3ccc(F)cc23)CC1 | 19.8 µM | 0.018 µM | 484 | 0.041 µM | 1100 | 4.57 ×10⁻⁶ cm/s |  |  | 
25 | O=C(NC1CCNCC1)c1cc(-c2ccc(CN3CCOCC3)cc2)nc2ccc(F)cc12 | 69.2 µM | 0.99 µM |  |  | 69.9 |  |  |  | 
26 | CC(C)(C)N1CCN(CCNC(=O)c2cc(-c3ccc(CN4CCOCC4)cc3)nc3ccc(F)cc23)CC1 | 100 µM | 3.11 µM |  |  | 32.1 | 2.09 ×10⁻⁶ cm/s |  |  | 
27 | O=C(NCC(F)(F)F)c1cc(-c2ccc(CN3CCOCC3)cc2)nc2ccc(F)cc12 | 98.9 µM | 8.78 µM |  |  | 11.3 |  |  |  | 
28 | CCC(=O)N1CCN(C(=O)c2cc(-c3ccc(CN4CCOCC4)cc3)nc3ccc(F)cc23)CC1 | 92.4 µM | 7.38 µM |  |  | 12.6 | 5.53 ×10⁻⁶ cm/s |  |  | 
29 | CC(C)(C)OC(=O)N1CCN(CCC(=O)Nc2cc(-c3ccc(CN4CCOCC4)cc3)nc3ccc(F)cc23)CC1 | 56.2 µM | 0.26 µM | 187 | 0.3 µM | 216 |  |  |  | 
